Source: publication PMC9719519, “Non-classical ferroptosis inhibition by a small molecule targeting PHB2” (Nature Communications, 2022)

Columns and labels:
[1] = biological target: T1, Yes(h) (Homo sapiens, UniProt P07947); experiment: biochemical; set-up: Eurofins recombinant human kinase profiling, remaining kinase activity as % of control, 10 uM ATP; conditions: ATP 10 uM; read-out: %Ctrl@10 μM
T1 construct: gene YES1
Description: (§1) To rapidly determine the biological target of YL-939, we first tested the activity of YL-939 against a panel of 401 recombinant human protein kinases by using the kinase profiling assay provided by Eurofins, since kinases are often the key components in various signal pathways[35],[36]. […] We then carried out affinity-based proteome profiling assay (ABPP) coupled with bioimaging to identify the biological target of YL-939 (Fig. 4A). To this end, we designed and synthesized a photoaffinity probe, YL-939-1 (Fig. 4A and Supplementary Fig. 5), which is YL-939 attached by a photo-crosslinker (L3) that contains a photo-reactive group diazirine and a clickable alkyne handle.

[2] = biological target: T2, DCAMKL2(h) (Homo sapiens, UniProt Q8N568); experiment: biochemical; set-up: Eurofins recombinant human kinase profiling, remaining kinase activity as % of control, 10 uM ATP; conditions: ATP 10 uM; read-out: %Ctrl@10 μM
T2 construct: gene DCLK2
T2 sequence (Q8N568 whole entry): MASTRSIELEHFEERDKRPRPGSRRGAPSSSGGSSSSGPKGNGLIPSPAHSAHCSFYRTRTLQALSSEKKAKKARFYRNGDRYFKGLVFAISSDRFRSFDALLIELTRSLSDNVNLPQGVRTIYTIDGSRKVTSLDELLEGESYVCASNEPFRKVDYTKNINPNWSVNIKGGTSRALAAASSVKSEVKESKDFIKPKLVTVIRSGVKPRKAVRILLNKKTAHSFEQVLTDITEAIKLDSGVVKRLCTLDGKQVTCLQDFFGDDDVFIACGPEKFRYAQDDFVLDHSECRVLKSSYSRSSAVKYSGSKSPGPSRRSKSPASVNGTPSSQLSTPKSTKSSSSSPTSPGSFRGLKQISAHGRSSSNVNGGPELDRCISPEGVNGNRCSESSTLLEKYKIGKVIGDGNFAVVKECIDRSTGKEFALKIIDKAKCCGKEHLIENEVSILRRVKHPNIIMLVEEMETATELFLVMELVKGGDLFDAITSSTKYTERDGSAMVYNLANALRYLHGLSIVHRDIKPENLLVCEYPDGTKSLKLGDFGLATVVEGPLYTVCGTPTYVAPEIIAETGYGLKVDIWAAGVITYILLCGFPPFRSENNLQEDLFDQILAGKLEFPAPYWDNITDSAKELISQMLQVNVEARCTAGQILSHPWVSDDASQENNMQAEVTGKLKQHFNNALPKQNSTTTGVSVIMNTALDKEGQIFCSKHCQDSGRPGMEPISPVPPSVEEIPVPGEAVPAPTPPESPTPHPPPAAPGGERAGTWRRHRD
Description: as §1

[3] = biological target: EphB3(h) (Homo sapiens, UniProt P54753); experiment: biochemical; set-up: Eurofins recombinant human kinase profiling, remaining kinase activity as % of control, 10 uM ATP; conditions: ATP 10 uM; read-out: %Ctrl@10 μM
Description: as §1

[4] = biological target: T3, Pim-3(h) (Homo sapiens, UniProt Q86V86); experiment: biochemical; set-up: Eurofins recombinant human kinase profiling, remaining kinase activity as % of control, 10 uM ATP; conditions: ATP 10 uM; read-out: %Ctrl@10 μM
T3 construct: gene PIM3
Description: as §1

[5] = biological target: BTK(R28H)(h) (Homo sapiens, UniProt Q06187, R28H); experiment: biochemical; set-up: Eurofins recombinant human kinase profiling, remaining kinase activity as % of control, 10 uM ATP; conditions: ATP 10 uM; read-out: %Ctrl@10 μM
Description: as §1

[6] = biological target: TAF1L(h) (Homo sapiens, UniProt Q8IZX4); experiment: biochemical; set-up: Eurofins recombinant human kinase profiling, remaining kinase activity as % of control, 10 uM ATP; conditions: ATP 10 uM; read-out: %Ctrl@10 μM
Chain of TAF1L(h) (Q8IZX4 whole entry): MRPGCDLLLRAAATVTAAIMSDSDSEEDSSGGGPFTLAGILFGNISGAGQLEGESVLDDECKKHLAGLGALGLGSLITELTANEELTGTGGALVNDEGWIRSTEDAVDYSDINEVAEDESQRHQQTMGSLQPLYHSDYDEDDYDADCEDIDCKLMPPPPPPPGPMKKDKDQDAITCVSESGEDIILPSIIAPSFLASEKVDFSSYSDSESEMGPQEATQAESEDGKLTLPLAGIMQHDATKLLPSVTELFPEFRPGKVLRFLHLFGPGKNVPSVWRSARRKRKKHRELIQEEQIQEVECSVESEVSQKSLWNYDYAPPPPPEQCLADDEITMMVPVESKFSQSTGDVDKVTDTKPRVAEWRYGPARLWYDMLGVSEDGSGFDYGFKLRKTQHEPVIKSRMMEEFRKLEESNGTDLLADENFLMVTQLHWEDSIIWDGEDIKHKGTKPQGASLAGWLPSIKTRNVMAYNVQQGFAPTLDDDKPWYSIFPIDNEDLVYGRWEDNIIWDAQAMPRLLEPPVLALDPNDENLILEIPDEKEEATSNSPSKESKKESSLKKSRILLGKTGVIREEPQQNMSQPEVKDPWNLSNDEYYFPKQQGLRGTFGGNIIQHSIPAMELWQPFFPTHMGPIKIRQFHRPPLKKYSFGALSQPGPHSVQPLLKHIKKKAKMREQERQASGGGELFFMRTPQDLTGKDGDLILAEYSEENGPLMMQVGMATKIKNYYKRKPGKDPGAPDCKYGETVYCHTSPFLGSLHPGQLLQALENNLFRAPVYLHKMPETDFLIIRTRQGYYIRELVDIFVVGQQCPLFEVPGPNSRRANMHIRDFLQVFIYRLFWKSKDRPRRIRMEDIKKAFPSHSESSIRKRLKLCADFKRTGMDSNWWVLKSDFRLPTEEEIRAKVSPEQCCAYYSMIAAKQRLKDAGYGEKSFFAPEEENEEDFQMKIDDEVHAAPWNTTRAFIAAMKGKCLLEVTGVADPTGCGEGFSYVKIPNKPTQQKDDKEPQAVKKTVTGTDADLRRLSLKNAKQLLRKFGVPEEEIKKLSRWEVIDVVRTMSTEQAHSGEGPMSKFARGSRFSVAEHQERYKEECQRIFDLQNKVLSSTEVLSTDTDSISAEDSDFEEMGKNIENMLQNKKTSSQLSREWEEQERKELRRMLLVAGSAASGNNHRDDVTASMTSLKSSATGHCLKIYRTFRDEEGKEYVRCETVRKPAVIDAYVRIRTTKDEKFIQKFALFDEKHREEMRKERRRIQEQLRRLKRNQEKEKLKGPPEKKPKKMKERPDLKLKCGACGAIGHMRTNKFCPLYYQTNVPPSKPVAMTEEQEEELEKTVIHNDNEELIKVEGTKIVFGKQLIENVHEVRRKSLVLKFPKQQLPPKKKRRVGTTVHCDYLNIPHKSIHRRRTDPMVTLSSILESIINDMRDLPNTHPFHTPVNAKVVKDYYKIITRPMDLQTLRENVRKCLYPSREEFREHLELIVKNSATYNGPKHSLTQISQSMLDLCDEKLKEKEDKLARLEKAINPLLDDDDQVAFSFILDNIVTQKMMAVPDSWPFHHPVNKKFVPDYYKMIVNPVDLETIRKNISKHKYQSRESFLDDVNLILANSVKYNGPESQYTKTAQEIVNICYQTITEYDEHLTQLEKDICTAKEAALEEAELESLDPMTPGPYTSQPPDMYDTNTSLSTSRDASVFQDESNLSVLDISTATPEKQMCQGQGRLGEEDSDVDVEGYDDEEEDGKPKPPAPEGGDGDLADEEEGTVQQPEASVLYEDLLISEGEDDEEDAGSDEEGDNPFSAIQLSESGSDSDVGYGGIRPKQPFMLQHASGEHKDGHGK
Description: as §1

[7] = biological target: TYK2(h) (Homo sapiens, UniProt P29597); experiment: biochemical; set-up: Eurofins recombinant human kinase profiling, remaining kinase activity as % of control, 10 uM ATP; conditions: ATP 10 uM; read-out: %Ctrl@10 μM
Description: as §1

[8] = biological target: T4, ALK2(h) (Homo sapiens, UniProt Q04771); experiment: biochemical; set-up: Eurofins recombinant human kinase profiling, remaining kinase activity as % of control, 10 uM ATP; conditions: ATP 10 uM; read-out: %Ctrl@10 μM
T4 construct: gene ACVR1
Description: as §1

[9] = biological target: TSSK2(h) (Homo sapiens, UniProt Q96PF2); experiment: biochemical; set-up: Eurofins recombinant human kinase profiling, remaining kinase activity as % of control, 10 uM ATP; conditions: ATP 10 uM; read-out: %Ctrl@10 μM
Chain of TSSK2(h) (Q96PF2 whole entry): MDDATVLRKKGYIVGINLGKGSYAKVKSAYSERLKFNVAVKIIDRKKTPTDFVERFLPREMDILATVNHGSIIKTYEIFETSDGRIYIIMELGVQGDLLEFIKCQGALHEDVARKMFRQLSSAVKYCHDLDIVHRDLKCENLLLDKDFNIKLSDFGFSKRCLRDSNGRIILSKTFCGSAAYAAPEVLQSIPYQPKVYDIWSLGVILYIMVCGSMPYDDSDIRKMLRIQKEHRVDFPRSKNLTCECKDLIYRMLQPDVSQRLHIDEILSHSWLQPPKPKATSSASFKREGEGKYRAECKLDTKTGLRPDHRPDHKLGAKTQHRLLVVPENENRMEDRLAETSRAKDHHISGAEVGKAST
Description: as §1

[10] = biological target: T5, PDHK2(h) (Homo sapiens, UniProt Q15119); experiment: biochemical; set-up: Eurofins recombinant human kinase profiling, remaining kinase activity as % of control, 10 uM ATP; conditions: ATP 10 uM; read-out: %Ctrl@10 μM
T5 construct: gene PDK2
Description: as §1

[11] = biological target: TSSK4(h) (Homo sapiens, UniProt Q6SA08); experiment: biochemical; set-up: Eurofins recombinant human kinase profiling, remaining kinase activity as % of control, 10 uM ATP; conditions: ATP 10 uM; read-out: %Ctrl@10 μM
Description: as §1

[12] = biological target: T6, cKit(V654A)(h) (Homo sapiens, UniProt P10721, V654A); experiment: biochemical; set-up: Eurofins recombinant human kinase profiling, remaining kinase activity as % of control, 10 uM ATP; conditions: ATP 10 uM; read-out: %Ctrl@10 μM
T6 construct: gene KIT
Description: as §1

[13] = biological target: LTK(h) (Homo sapiens, UniProt P29376); experiment: biochemical; set-up: Eurofins recombinant human kinase profiling, remaining kinase activity as % of control, 10 uM ATP; conditions: ATP 10 uM; read-out: %Ctrl@10 μM
Description: as §1

[14] = biological target: T7, MST4(h) (Homo sapiens, UniProt Q9P289); experiment: biochemical; set-up: Eurofins recombinant human kinase profiling, remaining kinase activity as % of control, 10 uM ATP; conditions: ATP 10 uM; read-out: %Ctrl@10 μM
T7 construct: gene STK26
T7 sequence (Q9P289 whole entry): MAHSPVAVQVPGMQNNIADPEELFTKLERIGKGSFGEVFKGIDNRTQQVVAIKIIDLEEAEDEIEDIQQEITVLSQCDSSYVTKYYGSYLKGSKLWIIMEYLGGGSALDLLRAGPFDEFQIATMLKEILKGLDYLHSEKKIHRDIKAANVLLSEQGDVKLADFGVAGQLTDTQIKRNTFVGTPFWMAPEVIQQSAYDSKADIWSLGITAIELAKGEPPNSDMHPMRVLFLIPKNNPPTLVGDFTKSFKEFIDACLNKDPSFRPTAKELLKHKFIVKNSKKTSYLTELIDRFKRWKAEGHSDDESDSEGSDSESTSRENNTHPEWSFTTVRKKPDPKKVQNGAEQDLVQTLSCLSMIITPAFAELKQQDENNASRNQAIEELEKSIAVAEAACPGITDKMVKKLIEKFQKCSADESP
Description: as §1

[15] = biological target: T8, MKK6(h) (Homo sapiens, UniProt P52564); experiment: biochemical; set-up: Eurofins recombinant human kinase profiling, remaining kinase activity as % of control, 10 uM ATP; conditions: ATP 10 uM; read-out: %Ctrl@10 μM
T8 construct: gene MAP2K6
T8 sequence (P52564 whole entry): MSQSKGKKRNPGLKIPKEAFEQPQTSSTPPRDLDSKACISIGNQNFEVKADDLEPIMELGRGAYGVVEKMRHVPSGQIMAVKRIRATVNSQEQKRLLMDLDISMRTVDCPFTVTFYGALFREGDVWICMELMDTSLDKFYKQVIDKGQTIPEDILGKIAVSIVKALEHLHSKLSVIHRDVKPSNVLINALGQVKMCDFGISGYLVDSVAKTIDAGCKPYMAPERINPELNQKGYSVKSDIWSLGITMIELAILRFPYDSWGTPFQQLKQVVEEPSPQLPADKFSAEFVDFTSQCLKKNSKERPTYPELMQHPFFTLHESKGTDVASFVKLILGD
Description: as §1

[16] = biological target: CaMKK1(h) (Homo sapiens, UniProt Q8N5S9); experiment: biochemical; set-up: Eurofins recombinant human kinase profiling, remaining kinase activity as % of control, 10 uM ATP; conditions: ATP 10 uM; read-out: %Ctrl@10 μM
Description: as §1

[17] = biological target: CLK3(h) (Homo sapiens, UniProt P49761); experiment: biochemical; set-up: Eurofins recombinant human kinase profiling, remaining kinase activity as % of control, 10 uM ATP; conditions: ATP 10 uM; read-out: %Ctrl@10 μM
Chain of CLK3(h) (P49761 whole entry): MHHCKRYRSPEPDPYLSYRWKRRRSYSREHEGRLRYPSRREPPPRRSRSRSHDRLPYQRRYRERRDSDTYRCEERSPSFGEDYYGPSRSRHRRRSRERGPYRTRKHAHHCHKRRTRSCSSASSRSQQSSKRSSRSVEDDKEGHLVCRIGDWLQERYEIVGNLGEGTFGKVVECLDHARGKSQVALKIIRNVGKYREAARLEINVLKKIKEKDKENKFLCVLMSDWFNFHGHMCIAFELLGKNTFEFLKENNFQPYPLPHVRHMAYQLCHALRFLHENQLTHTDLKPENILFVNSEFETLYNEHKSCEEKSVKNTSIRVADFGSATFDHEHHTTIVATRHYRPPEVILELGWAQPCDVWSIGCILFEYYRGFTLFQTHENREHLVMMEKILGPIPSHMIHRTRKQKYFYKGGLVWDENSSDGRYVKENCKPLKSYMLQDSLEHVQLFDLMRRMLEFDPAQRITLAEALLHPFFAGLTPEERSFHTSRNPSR
Description: as §1

[18] = biological target: T9, CHK1(h) (Homo sapiens, UniProt O14757); experiment: biochemical; set-up: Eurofins recombinant human kinase profiling, remaining kinase activity as % of control, 10 uM ATP; conditions: ATP 10 uM; read-out: %Ctrl@10 μM
T9 construct: gene CHEK1
Description: as §1

[19] = biological target: T10, PKBα(h) (Homo sapiens, UniProt P31749); experiment: biochemical; set-up: Eurofins recombinant human kinase profiling, remaining kinase activity as % of control, 10 uM ATP; conditions: ATP 10 uM; read-out: %Ctrl@10 μM
T10 construct: gene AKT1
T10 sequence (P31749 whole entry): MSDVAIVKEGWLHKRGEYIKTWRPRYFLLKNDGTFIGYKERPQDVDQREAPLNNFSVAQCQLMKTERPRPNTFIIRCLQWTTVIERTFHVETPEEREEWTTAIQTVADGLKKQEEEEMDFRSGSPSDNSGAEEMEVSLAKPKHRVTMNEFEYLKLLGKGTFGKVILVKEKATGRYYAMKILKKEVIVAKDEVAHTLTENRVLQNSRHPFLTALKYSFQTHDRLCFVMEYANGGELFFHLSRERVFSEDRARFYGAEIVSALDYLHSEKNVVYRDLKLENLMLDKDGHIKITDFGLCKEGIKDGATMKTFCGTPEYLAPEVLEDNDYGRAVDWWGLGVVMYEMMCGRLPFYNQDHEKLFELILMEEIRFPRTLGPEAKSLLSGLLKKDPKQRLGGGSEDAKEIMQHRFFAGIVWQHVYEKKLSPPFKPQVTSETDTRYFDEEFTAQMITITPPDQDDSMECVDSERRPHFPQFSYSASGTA
Description: as §1

[20] = biological target: Blk(h) (Homo sapiens, UniProt P51451); experiment: biochemical; set-up: Eurofins recombinant human kinase profiling, remaining kinase activity as % of control, 10 uM ATP; conditions: ATP 10 uM; read-out: %Ctrl@10 μM
Description: as §1

[21] = biological target: T11, LOK(h) (Homo sapiens, UniProt O94804); experiment: biochemical; set-up: Eurofins recombinant human kinase profiling, remaining kinase activity as % of control, 10 uM ATP; conditions: ATP 10 uM; read-out: %Ctrl@10 μM
T11 construct: gene STK10
Description: as §1

[22] = biological target: T12, cKit(D816V)(h) (Homo sapiens, UniProt P10721, D816V); experiment: biochemical; set-up: Eurofins recombinant human kinase profiling, remaining kinase activity as % of control, 10 uM ATP; conditions: ATP 10 uM; read-out: %Ctrl@10 μM
T12 construct: gene KIT
Description: as §1

[23] = biological target: prohibitin 2 (PHB2) (Homo sapiens, UniProt Q99623); experiment: SPR on purified recombinant PHB2 […]-194; DSF shift […] °C; DARTS in cells; type: binding; set-up: PHB2 1–194 (6× His tag)

C1=C(c2nc(-c3cnn(C4CCNCC4)c3)cn3cc(-c4ccccc4)nc23)CCOC1 [YL-939] showed a remaining activity at 10 µM [1] of 90%, a remaining activity at 10 µM [2] of 79% and a remaining activity at 10 µM [3] of 93%. The remaining activity at 10 µM [4] was 103%, the remaining activity at 10 µM [5] was 107% and the remaining activity at 10 µM [6] was 84%. The remaining activity at 10 µM [7] was 95%, the remaining activity at 10 µM [8] was 88% and the remaining activity at 10 µM [9] was 83%. It also gave a remaining activity at 10 µM [10] of 87%, a remaining activity at 10 µM [11] of 97% and a remaining activity at 10 µM [12] of 92%. It also gave a remaining activity at 10 µM [13] of 108%, a remaining activity at 10 µM [14] of 112% and a remaining activity at 10 µM [15] of 106%. For the same molecule, the remaining activity at 10 µM [16] was 91%, the remaining activity at 10 µM [17] was 96% and the remaining activity at 10 µM [18] was 98%. The remaining activity at 10 µM [19] was 68%, the remaining activity at 10 µM [20] was 100% and the remaining activity at 10 µM [21] was 95%. The remaining activity at 10 µM [22] was 108% and the Kd [23] was 3.43 µM.
